From patent publication US9314510B2, “Human laminin α2 chain LG3 domain and active peptides promoting cell adhesion, spreading, migration, and neurite outgrowth” (SNU R&DB Foundation, priority 2011, dated 2016)
Ends that are not written are not given here.

Tests used:
Assay type in all cases: cell-based, rat
PC12 cells [1] = test: Cell adhesion inhibition assay: peptide pretreatment, adhesion to rLG3-coated plates; conditions: rLG3 25 μg/mL, 1 h
Protocol: Specifically, PC12 cells were pretreated with the Ln2-LG3-P2 peptide in concentrations of 0, 0.2, 0.4, 0.6, 0.8, 1.0, or 1.2 μg/mL for 10 min at room temperature and then cultured on plates coated with rLG3 (25 μg/mL) for 1 h in serum-free medium.
(§1) PC12 cells were pretreated with 500 μg/mL of Ln2-LG3-P1, Ln2-LG3-P2, Ln2-LG3-P3, Ln2-LG3-P4, Ln2-LG3-P5 and SP (scramble peptide) (SEQ ID NO:20) for 10 min at room temperature and then cultured on plates coated with rLG3 (25 μg/mL) in serum-free medium. To observe cell adhesion, PC12 cells were incubated on the coated plates for 1 h and to observe cell spreading, PC12 cells were incubated on the coated plates for 3 h. To observe cell migration, cells were seed into the upper chamber of transwell filters coated with rLG3 (25 μg/mL) and cultured for 24 h. Cell migration was quantified by counting the number of cells that had migrated through the filter.
Specifically, PC12 cells were pretreated with Ln2-LG2-P2 (500 μg/mL) and Ln2-LG3-P2A (500 μg/mL) and then, cell adhesion was observed on plates coated with rLG3 (25 μg/mL).

PC12 cells [2] = test: Inhibition of cell migration to rLG3 by peptide pretreatment; conditions: PC12 cells pretreated with 500 μg/mL peptide, transwell coated with rLG3 25 μg/mL, 24 h
Protocol: as §1

PC12 cells [3] = test: Summary of cell adhesion, spreading, migration and neurite outgrowth promotive effects; conditions: summary statement of the description
Protocol: To measure cell adhesion, spreading, migration, and neurite outgrowth promotive activities of PC12 cells using the prepared synthetic peptides that are N- and C-terminal truncated or C-terminal added peptides of the Ln2-LG3-P2 peptide, peptides described in Table 1 were coated onto plates at 62.5 μg/mL and PC12 cells were seeded thereon.

PC12 cells [4] = test: Inhibition of cell adhesion to laminin by rLG3 / rLG3-M1 pretreatment; conditions: laminin 5 μg/mL
Protocol: In addition, PC12 cells were pretreated with rLG3 (250 or 500 μg/mL) or vehicle (phosphate buffer, pH 3.0) for 30 min and then seeded on plates coated with laminin (5 μg/mL) for 30 min in serum-free medium and cell adhesion was observed.

Molecule | cell adhesion to rLG3 after peptide pretreatment (PC12 cells [1]; PC12 cells pretreated with 0 to 1.2 μg/mL peptide for 10 min) | inhibition of cell adhesion to rLG3 protein (PC12 cells [1]; PC12 cells pretreated with 500 μg/mL peptide) | inhibition of cell migration to rLG3 protein (PC12 cells [2]) | cell adhesion, spreading, migration, and neurite outgrowth promotive effects (PC12 cells [3]) | inhibition of cell adhesion to laminin (PC12 cells [4]; PC12 cells pretreated with 250 μg/mL for 30 min) [%] | inhibition of cell adhesion to laminin (PC12 cells [4]; PC12 cells pretreated with 500 μg/mL for 30 min) [%]
RNIPPFEGCIWN (RNIPPFEGCIWN-NH2; listed as Homo sapiens) [Ln2-LG3-P2, 12-mer peptide, position 2675 to 2686 in human laminin α2 chain] | decreased in a dose-dependent manner | approximately 40% | inhibited cell spreading and migration | occurred the most actively |  | 
rLG3: recombinant His6-tagged human laminin α2 chain LG3 domain, amino acids 2537 to 2745 (protein, listed as Homo sapiens, His6 tag) VELSPVPIDVGTEINLSFSTKNESGIILLGSGGTPAPPRRKRRQTGQAYYVILLNRGRLEVHLSTGARTMRKIVIRPEPNLFHDGREHSVHVERTRGIFTVQVDENRRYMQNLTVEQPIEVKKLFVGGAPPEFQPSPLRNIPPFEGCIWNLVINSVPMDFARPVSFKNADIGRCAHQKLREDEDGAAPAEIVIQPEPVPTPAFPTPTPV |  |  |  |  | 23 | 48
